Laboratory results published in patent US8592172B2, “Bioluminescent assays using cyanobenzothiazole compounds” (Promega Corporation, priority 2010, dated 2013).

Legend:
[1] = system: CYP1A2; test: Non-lytic assay with rat hepatocytes, compound 3019; type: cell-based; conditions: 10 nM TCDD 48 hours, 3 μM compound 3019
[2] = biological target: Human recombinant CYP450 1A2 (Homo sapiens, UniProt P05177)
Procedure: (§1) Equal volumes of P450-Glo LDR with 6.6 mM D-Cysteine was added into the CYP450 reactions.

[3] = system: CYP450 1A2 activity in human liver microsomes; test: Human liver microsome assay with compound 3019
Procedure: as §1

[4] = system: CYP1A2; test: Non-lytic cell-based assay with human hepatocytes, compound 3019; conditions: non-lytic, 3 μM compound 3019, 1 hour
Procedure: Human cryopreserved hepatocytes (Celsis lot RTM) were thawed and seeded in hepatocyte culture medium in wells of a collagen-coated, 96-well culture plate at ˜70,000 cells per well and kept at 37° C. in standard cell culture incubator with 5% CO2. The cells were then treated for 48 hours with 100 μM omeprazole or vehicle control (0.1% dimethylsulfoxide) dissolved in hepatocytes culture medium (n═3 for each treatment, mean values and standard deviations are shown). […] 50 μl of the KH incubation buffer was then removed from each well and transferred to a well of a white, 96-well luminometer plate (Costar) where it was also combined with 50 μl of P450-Glo LDR containing 6.6 mM D-cysteine.

Sequence of Human recombinant CYP450 1A2 (P05177 whole entry): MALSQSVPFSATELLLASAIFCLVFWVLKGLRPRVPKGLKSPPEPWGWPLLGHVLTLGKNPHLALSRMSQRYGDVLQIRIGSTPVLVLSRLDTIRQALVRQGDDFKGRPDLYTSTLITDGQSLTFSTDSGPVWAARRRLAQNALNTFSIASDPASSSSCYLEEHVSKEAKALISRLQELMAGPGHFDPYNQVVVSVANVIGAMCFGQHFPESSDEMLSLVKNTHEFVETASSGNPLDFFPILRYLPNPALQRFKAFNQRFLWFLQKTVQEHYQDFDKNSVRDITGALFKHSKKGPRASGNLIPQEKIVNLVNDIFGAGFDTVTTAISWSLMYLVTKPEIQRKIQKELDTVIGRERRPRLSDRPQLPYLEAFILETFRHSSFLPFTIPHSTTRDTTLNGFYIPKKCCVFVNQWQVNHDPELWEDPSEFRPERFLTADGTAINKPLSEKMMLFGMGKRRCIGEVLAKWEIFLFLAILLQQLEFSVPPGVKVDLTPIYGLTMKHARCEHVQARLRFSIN

Compound | change of basal signal (CYP1A2 induction) [1] | substrate status for CYP450 1A2 [2] | activity with compound 3019 in human liver microsomes [3] | entry of substrate into cells [4]
Clc1cc2c(cc1Cl)Oc1cc(Cl)c(Cl)cc1O2 [TCDD, 2,3,7,8-tetrachlorodibenzo-p-dioxin] | significantly increased |  |  | 
CC(C)OC(OC(C)C)C1CSC(c2nc3ccc(O)cc3s2)=N1 (stereo not shown) [Compound 3019] |  | is indeed a CYP450 1A2 substrate | substantial activity | entered the cell
